# ChEMBL document CHEMBL4017441, “Mitigating the inhibition of human bile salt export pump by drugs: opportunities provided by physicochemical property modulation, in silico modeling, and structural modification” (Drug Metab Dispos, 2012)
# Biological target: Bile salt export pump (Homo sapiens, UniProt O95342)
# Format: ADME
row,Structure (SMILES),IC50 [µM]
1,CSCCNc1nc(SCCC(F)(F)F)nc2c1ncn2[C@@H]1O[C@H](COP(=O)(O)OP(=O)(O)C(Cl)(Cl)P(=O)(O)O)[C@@H](O)[C@H]1O [CANGRELOR],> 1000
2,COc1cc(C(=O)NCCCCCC(=O)O)cc(OC)c1OC [CAPOBENIC ACID],> 1000
3,COc1cc(CNC(=O)CCCC/C=C/C(C)C)ccc1O [CAPSAICIN],< 10
4,COC(=O)N/N=C/c1c[n+]([O-])c2ccccc2[n+]1[O-] [CARBADOX],> 940
5,C[N+](C)(C)CCOC(N)=O [CARBAMOYLCHOLINE],> 1000
6,C[C@@](Cc1ccc(O)c(O)c1)(NN)C(=O)O [CARBIDOPA ANHYDROUS],> 1000
7,CCOC(=O)n1ccn(C)c1=S [CARBIMAZOLE],> 1000
8,CN(C)CCOC(c1ccc(Cl)cc1)c1ccccn1 (centres undefined) [CARBINOXAMINE],> 1000
9,O=NN(CCCl)C(=O)NCCCl [CARMUSTINE],97.2
10,C[N+](C)(C)CC(O)CC(=O)[O-] (centres undefined) [CARNITINE],> 1000
11,CC(C)(C)NCC(O)COc1cccc2c1CCC(=O)N2 (centres undefined) [CARTEOLOL],> 1000
12,C=CC1=C(C(=O)O)N2C(=O)[C@@H](NC(=O)/C(=N\OCC(=O)O)c3csc(N)n3)[C@H]2SC1 [CEFIXIME],> 1000
13,CCN(CC)CCOC(=O)c1ccc(N)cc1Cl [CHLOROPROCAINE],> 1000
14,Cc1cc(O)cc(C)c1Cl [CHLOROXYLENOL],130
15,CN(C)CCCN1c2ccccc2Sc2ccc(Cl)cc21 [CHLORPROMAZINE],91
16,CN(C)CC/C=C1/c2ccccc2Sc2ccc(Cl)cc21 [CHLORPROTHIXENE],27.5
17,O=C(O)c1cc(-c2ccccc2)nc2ccccc12 [CINCHOPHEN],> 814
18,CCCC(=O)OCOC(=O)C1=C(C)NC(C)=C(C(=O)OC)C1c1cccc(Cl)c1Cl (centres undefined) [CLEVIDIPINE],36.4
19,CCN(CC)CCOc1ccc(C(=C(Cl)c2ccccc2)c2ccccc2)cc1 [CLOMIPHENE],< 10
20,Cc1onc(-c2ccccc2Cl)c1C(=O)N[C@@H]1C(=O)N2[C@@H]1SC(C)(C)[C@@H]2C(=O)O [CLOXACILLIN],41.6
21,Oc1ccc(Cl)c2cccnc12 [CLOXYQUIN],357
22,CN1CCN(C2=Nc3cc(Cl)ccc3Nc3ccccc32)CC1 [CLOZAPINE],75.1
23,C[C@]12CCC(=O)C=C1CC[C@@H]1[C@@H]2C(=O)C[C@@]2(C)[C@H]1CC[C@]2(O)C(=O)CO [CORTISONE],108
24,O=c1ccc2ccccc2o1 [COUMARIN],> 1000

row,Structure (SMILES),IC50 [µM]
1,O=C(NO)C1(CS(=O)(=O)c2ccc(Oc3ccc(Cl)cc3)cc2)CCOCC1 [CTS-1027],23.4
2,CC1CC(OC(=O)C(O)c2ccccc2)CC(C)(C)C1 (centres undefined) [CYCLANDELATE],15
3,CN(C)CCC=C1c2ccccc2C=Cc2ccccc21 [CYCLOBENZAPRINE],107
4,NCCS [CYSTEAMINE],331
5,CN(C)/N=N/c1[nH]cnc1C(N)=O [DACARBAZINE],> 1000
6,C#C[C@]1(O)CC[C@H]2[C@@H]3CCC4=Cc5oncc5C[C@]4(C)[C@H]3CC[C@@]21C [DANAZOL],< 10
7,O=C1CN(/N=C/c2ccc(-c3ccc([N+](=O)[O-])cc3)o2)C(O)=N1 [DANTROLENE],145
8,Cc1nc(Nc2ncc(C(=O)Nc3c(C)cccc3Cl)s2)cc(N2CCN(CCO)CC2)n1 [DASATINIB],< 10
9,O=C(O)c1ccc(OCCn2ccnc2)cc1 [DAZOXIBEN],> 1000
10,N=C(N)N1CCc2ccccc2C1 [DEBRISOQUIN],> 952
11,COc1ccc(-c2cc(C(F)F)nn2-c2ccc(S(N)(=O)=O)cc2)cc1F [DERACOXIB],20.2
12,CNCCCN1c2ccccc2CCc2ccccc21 [DESIPRAMINE],150
13,C[C@@H]1C[C@H]2[C@@H]3CCC4=CC(=O)C=C[C@]4(C)[C@@]3(F)[C@@H](O)C[C@]2(C)[C@H]1C(=O)CO [DESOXIMETASONE],16.4
14,C[C@]12CC[C@H]3[C@@H](CCC4=CC(=O)CC[C@@]43C)[C@@H]1CC[C@@H]2C(=O)CO [DESOXYCORTICOSTERONE],17.1
15,CN1C(=O)[C@@H](NC(=O)c2cc3ccccc3[nH]2)N=C(c2ccccc2)c2ccccc21 [DEVAZEPIDE],< 10
16,C[C@@H]1C[C@H]2[C@@H]3CCC4=CC(=O)C=C[C@]4(C)[C@@]3(F)[C@@H](O)C[C@]2(C)[C@@]1(O)C(=O)CO [DEXAMETHASONE],102
17,CC(C)(CO)[C@@H](O)C(=O)NCCCO [DEXPANTHENOL],> 1000
18,CC1=NS(=O)(=O)c2cc(Cl)ccc2N1 [DIAZOXIDE],> 1000
19,c1ccc2c(c1)sc1ccccc12 [DIBENZOTHIOPHENE],388
20,CCCCOc1cc(C(=O)NCCN(CC)CC)c2ccccc2n1 [DIBUCAINE],41.7
21,NS(=O)(=O)c1cc(Cl)c(Cl)c(S(N)(=O)=O)c1 [DICHLORPHENAMIDE],> 919
22,O=C(O)Cc1ccccc1Nc1c(Cl)cccc1Cl [DICLOFENAC],65
23,Cc1onc(-c2c(Cl)cccc2Cl)c1C(=O)N[C@@H]1C(=O)N2[C@@H]1SC(C)(C)[C@@H]2C(=O)O [DICLOXACILLIN],< 10
24,O=c1oc2ccccc2c(O)c1Cc1c(O)c2ccccc2oc1=O [DICUMAROL],39.9

row,Structure (SMILES),IC50 [µM]
1,O=C1c2ccccc2CN2C(=O)c3ccccc3CN12 [DIFTALONE],> 1000
2,C[C@H]1O[C@@H](O[C@H]2[C@@H](O)C[C@H](O[C@H]3[C@@H](O)C[C@H](O[C@H]4CC[C@@]5(C)[C@H](CC[C@@H]6[C@@H]5CC[C@]5(C)[C@@H](C7=CC(=O)OC7)CC[C@]65O)C4)O[C@@H]3C)O[C@@H]2C)C[C@H](O)[C@@H]1O [DIGITOXIN],< 10
3,CC1(C)OC(=O)NC1=O [DIMETHADIONE],> 1000
4,CCCCc1cc2ccccc2c(OCCN(C)C)n1 [DIMETHISOQUIN],68.7
5,CCCCC[C@H](O)/C=C/[C@H]1[C@H](O)CC(=O)[C@@H]1C/C=C\CCCC(=O)O [DINOPROSTONE],> 1000
6,CCN(CC)C(=S)S [DITIOCARB],69.3
7,CC(CCc1ccc(O)cc1)NCCc1ccc(O)c(O)c1 (centres undefined) [DOBUTAMINE],> 1000
8,CCCCCCCCCCCCCCCCCCCCCCO [DOCOSANOL],> 1000
9,CN(CCOc1ccc(NS(C)(=O)=O)cc1)CCc1ccc(NS(C)(=O)=O)cc1 [DOFETILIDE],708
10,COc1cc2c(cc1OC)C(=O)C(CC1CCN(Cc3ccccc3)CC1)C2 (centres undefined) [DONEPEZIL],146
11,Oc1ccc(CCNCCCCCCNCCc2ccccc2)cc1O [DOPEXAMINE],> 1000
12,CN(C)CCOC(C)(c1ccccc1)c1ccccn1 (centres undefined) [DOXYLAMINE],> 1000
13,O=C(CCCN1CC=C(n2c(=O)[nH]c3ccccc32)CC1)c1ccc(F)cc1 [DROPERIDOL],< 10
14,CCCCOc1ccc(C(=O)CCN2CCCCC2)cc1 [DYCLONINE],275
15,Cn1c(=O)c2c(ncn2CC(O)CO)n(C)c1=O (centres undefined) [DYPHYLLINE],> 1000
16,O=c1c2ccccc2[se]n1-c1ccccc1 [EBSELEN],< 10
17,Clc1ccc(COC(Cn2ccnc2)c2ccc(Cl)cc2Cl)cc1 (centres undefined) [ECONAZOLE],< 10
18,CCCn1c(=O)[nH]c(=O)c2[nH]cnc21 [ENPROFYLLINE],> 1000
19,CCN1CCN(c2cc3c(cc2F)c(=O)c(C(=O)O)cn3C2CC2)CC1 [ENROFLOXACIN],> 1000
20,N#Cc1ccccc1OCC(O)CNCCNC(=O)Cc1ccc(O)cc1 (centres undefined) [EPANOLOL],244
21,C#Cc1cccc(Nc2ncnc3cc(OCCOC)c(OCCOC)cc23)c1 [ERLOTINIB],< 10
22,C[C@]12CC[C@@H]3c4ccc(O)cc4CC[C@H]3[C@@H]1C[C@@H](O)[C@@H]2O [ESTRIOL],> 1000
23,C[C@]12CC[C@@H]3c4ccc(O)cc4CC[C@H]3[C@@H]1CCC2=O [ESTRONE],> 1000
24,CCOc1ccc2nc3cc(N)ccc3c(N)c2c1 [ETHACRIDINE],43.5

row,Structure (SMILES),IC50 [µM]
1,C#C[C@]1(O)CC[C@H]2[C@@H]3CCc4cc(O)ccc4[C@H]3CC[C@@]21C [ETHINYL ESTRADIOL],< 10
2,CCc1cc(C(N)=S)ccn1 [ETHIONAMIDE],> 1000
3,CCN(CC)C(C)CN1c2ccccc2Sc2ccccc21 (centres undefined) [ETHOPROPAZINE],139
4,CCC1(C)CC(=O)NC1=O (centres undefined) [ETHOSUXIMIDE],> 1000
5,CCN1C(=O)NC(c2ccccc2)C1=O (centres undefined) [ETHOTOIN],> 792
6,CC(O)(P(=O)(O)O)P(=O)(O)O [ETIDRONIC ACID],> 1000
7,CCOC(=O)c1cncn1[C@H](C)c1ccccc1 [ETOMIDATE],61.6
8,O=C(O)Cc1ccccc1Oc1ccc(Cl)cc1Cl [FENCLOFENAC],236
9,CN1CC(=O)N=C1NC(=O)Nc1cccc(Cl)c1 [FENOBAM ANHYDROUS],> 1000
10,Oc1ccc(C2CNCCc3c2cc(O)c(O)c3Cl)cc1 (centres undefined) [FENOLDOPAM],> 1000
11,O=C(NCC1CCCCN1)c1cc(OCC(F)(F)F)ccc1OCC(F)(F)F (centres undefined) [FLECAINIDE],218
12,Cc1onc(-c2c(F)cccc2Cl)c1C(=O)N[C@@H]1C(=O)N2[C@@H]1SC(C)(C)[C@@H]2C(=O)O [FLOXACILLIN],< 10
13,CCOC(=O)c1ncn2c1CN(C)C(=O)c1cc(F)ccc1-2 [FLUMAZENIL],> 733
14,C[C@@H]1C[C@H]2[C@@H]3C[C@H](F)C4=CC(=O)C=C[C@]4(C)[C@@]3(F)[C@@H](O)C[C@]2(C)[C@@]1(O)C(=O)CO [FLUMETHASONE],68.5
15,Fc1ccc(C(c2ccc(F)cc2)N2CCN(C/C=C/c3ccccc3)CC2)cc1 [FLUNARIZINE],< 10
16,CC(=O)[C@@]1(O)CC[C@H]2[C@@H]3C[C@H](C)C4=CC(=O)C=C[C@]4(C)[C@@]3(F)[C@@H](O)C[C@@]21C [FLUOROMETHOLONE],101
17,O=c1[nH]cc(F)c(=O)[nH]1 [FLUOROURACIL],> 1000
18,OCCN1CCN(CCCN2c3ccccc3Sc3ccc(C(F)(F)F)cc32)CC1 [FLUPHENAZINE],25.8
19,CC1(C)O[C@@H]2C[C@H]3[C@@H]4C[C@H](F)C5=CC(=O)CC[C@]5(C)[C@H]4[C@@H](O)C[C@]3(C)[C@]2(C(=O)CO)O1 [FLURANDRENOLIDE],71.2
20,CC(C(=O)O)c1ccc(-c2ccccc2)c(F)c1 (centres undefined) [FLURBIPROFEN],725
21,CC(C)C(=O)Nc1ccc([N+](=O)[O-])c(C(F)(F)F)c1 [FLUTAMIDE],60.8
22,CCCc1c(OCC(O)COc2ccc3c(=O)cc(C(=O)O)oc3c2CCC)ccc(C(C)=O)c1O (centres undefined) [FPL-55712],< 10
